Laboratory results reported in US20250073209A1, “COVALENT TARGETING OF RhoA FOR CANCER THERAPY” (The University of Hong Kong, priority 2023, published 2025).

Key:
[1] = test system: SL4 cells; experiment: MTT assay on mouse CRC cells SL4; format: cell-based; conditions: complete medium 48 h
Protocol: FIG. 13A is a graph showing the cell viability, which was examined by MTT assay. SL4 cells were treated with solvent vehicle or CL16 in complete medium for 48 h.
Antitumor effects of CL16 in an immunocompetent, orthotopic mouse CRC model, which was established by the inoculation of mouse CRC cells, SL4, intracecally were examined (FIG. 20). […] Immunohistochemistry staining of CD3, CD4, CD8, Ki67 was conducted, with cleaved caspase-3 and VEGFR2 on tumor tissues from the vehicle- or CL16-treated mice.

[2] = test system: HT29 spheroid; experiment: Spheroid formation assay, HT29; format: cell-based, human
Protocol: FIGS. 5A-5B are graphs showing the anticancer effects of CL16 in HT29 (FIG. 5A) and SW620 (FIG. 5B) spheroids. HT29 spheroid or SW620 spheroid were treated with CL16 at the indicated concentrations for 10 days. The spheroids were then imaged by microscope using 10× objective and the size was determined by ImageJ.
5,000 cells of HT29 and SW620 cells were inoculated in serum-free DMEM/F12 medium with 20 ng/mL […] growth factor (EGF) in 96-well round-bottom low-affinity plate (Nunc). Medium was supplemented with CL16 or Rhosin when spheroid has formed an opaque core. Morphology was recorded under a light microscope with 10× objective.
To further investigate the anticancer effects of CL16, HT29 and SW620 cells were inoculated as spheroids in low-affinity plate with 20 ng/mL EGF, and incubated with different concentrations of CL16 or Rhosin.

[3] = molecular target: Cdc42 (Homo sapiens, UniProt P60953); experiment: Gel-based competitive ABPP, second screening on Cdc42; format: binding
Chain of Cdc42 (P60953 whole entry): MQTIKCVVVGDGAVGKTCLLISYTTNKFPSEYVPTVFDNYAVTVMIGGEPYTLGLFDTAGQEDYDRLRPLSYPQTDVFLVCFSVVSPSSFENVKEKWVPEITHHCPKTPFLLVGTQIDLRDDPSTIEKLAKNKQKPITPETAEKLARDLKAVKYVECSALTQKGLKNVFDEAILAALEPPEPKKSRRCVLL
Protocol: (§1) Recombinant human RhoA (0.1 μg; ab101594) was pretreated with cysteine-reactive compounds or DMSO for 1 hour at room temperature, followed by incubation with iodoacetamide-rhodamine (IA-Rh; 1 μM) for 1 hour at room temperature. The reaction was then quenched by boiling in sampling buffer. Samples were subjected to SDS-PAGE to separate proteins bands. In-gel fluorescence intensity was measured with a Chemidoc using setting for Rhodamine. Gel was subsequently stained with silver stain (Pierce) for visualization of protein content and covalent modification. Band intensity was quantified using ImageJ.
(§2) CL16 was identified for its strong and specific binding with RhoA in covalent ligand screening experiment by ABPP. ABPP is known as a powerful platform for covalent ligand screening, particularly for the identification of lead compounds targeting new hotspots for therapy. Competitive gel-based activity-based protein profiling (ABPP) experiment was performed on purified RhoA protein for screening its interactions with a library of cysteine-reactive covalent ligands with acrylamide or chloroacetamide warheads. RhoA protein for the first screening and on Rac1 and Cdc42 for the second screening to identify lead compounds with specific binding onto RhoA Cys16. […] The reaction mixture was then resolved by SDS-PAGE and in-gel fluorescence was imaged (FIG. 1A). […]

[4] = test system: orthotopic SL4 CRC; experiment: Immunocompetent orthotopic mouse CRC model (SL4 intracecal); format: in vivo
Text: FIG. 13B is a graph showing the weight of tumors from the mice treated with vehicle (n=7) or CL16 (n=8) at the end point of the investigation of CL16 treatment. FIGS. 13C-13H are graphs showing the scores of the immunohistochemistry staining of CD3 (FIG. 13C), CD4 (FIG. 13D), CD8 (FIG. 13E), Ki67 (FIG. 13F), cleaved caspase-3 (FIG. 13G) and VEGFR2 (FIG. 13H) on tumor tissues from the vehicle- or CL16-treated mice, FIG. 131 is a graph showing the changes in the body weight of mice with orthotopic SL4 CRC model treated with solvent vehicle or CL16 through i.p. injection. Antitumor effects of CL16 in an immunocompetent, orthotopic mouse CRC model, which was established by the inoculation of mouse CRC cells, SL4, intracecally were examined (FIG. 20). […] Immunohistochemistry staining of CD3, CD4, CD8, Ki67 was conducted, with cleaved caspase-3 and VEGFR2 on tumor tissues from the vehicle- or CL16-treated mice. […] To the best of our knowledge, this is the first reported study showing an increase in immunity through RhoA inhibition in CRC cells by a small molecule compound.

[5] = molecular target: RhoA (Homo sapiens, UniProt P61586); experiment: Gel-based competitive ABPP (iodoacetamide-rhodamine) on purified RhoA; design: purchased ab101594; conditions: competition with IA-Rh, dose-dependent experiments; read-out: IC50 of the competitive binding / in vitro RhoA binding
Chain of RhoA (P61586 whole entry): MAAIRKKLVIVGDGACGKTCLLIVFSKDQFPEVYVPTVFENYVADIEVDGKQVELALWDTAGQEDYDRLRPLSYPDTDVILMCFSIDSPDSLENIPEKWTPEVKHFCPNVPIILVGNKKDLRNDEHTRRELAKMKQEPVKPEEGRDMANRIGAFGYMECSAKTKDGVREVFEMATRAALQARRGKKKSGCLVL
Protocol: as §1, §2

[6] = molecular target: T1, RhoA-GEF interactions (Homo sapiens, UniProt P61586); experiment: Co-immunoprecipitation of GST-RhoA with GEF-containing cell lysates; format: biochemical; conditions: GST-RhoA with HEK293T cell lysates
T1 construct: host or cells: GEFs overexpressed in HEK293T lysates
T1 sequence (P61586 whole entry): as above
Protocol: 10 μg of purified GST-RhoA was immobilized on Glutathione resin (Pierce) and incubated with CL16 in GTP-exchange buffer (20 mM HEPES, 150 mM NaCl, 5 mM MgCl2, pH 7.4) for 1 hour. Then, the mixture was centrifuged at 700g for 2 min and supernatant was discarded. 120 μg of total cell lysate with overexpression of GEF (Arhgefl p-115, Arhgefl2 LARG DH-PH domain, Arhgef13 Akap Lbc) was added to the resin. The mixture was put on an end-to-end rotator and incubated at 4° C. for 4 hours. The resin was then washed, eluted and subjected to immunoblotting.

**Q.** What does the source list for O=C(CCl)N1N=C(c2cc3ccccc3o2)CC1c1ccco1 (stereo not shown) [CL16]?
**A.** viability of SL4 [1]: significantly decreased the viability; growth of HT29 spheroids ([2]; 20 ng/mL EGF, low-affinity plate): significant inhibitions in the growth; IC50 ([2]; Homo sapiens, HT-29, 240 h, 10 days, read-out: cytotoxic IC50 in HT29 spheroids): 5.57 µM; binding with Cdc42 [3]: no observable binding; body weight ([4]; i.p. injection): no significant changes in the body weight; tumor weight ([4]; i.p. injection, end point): significantly lower tumor weight; organ damage in kidney tissue ([4]; treated mice): no organ damages in the kidney tissue; Ki67 in tumor tissues ([4]; treated vs vehicle): decrease in Ki67; cleaved caspase-3 immunohistochemistry in tumor tissues ([4]; treated vs vehicle): elevated level; CD3 immunohistochemistry of tumor tissues ([4]; tumor tissues): increases; CD4 immunohistochemistry of tumor tissues ([4]; tumor tissues): increases; CD8 immunohistochemistry of tumor tissues ([4]; tumor tissues): increases; VEGFR2 level, immunohistochemistry ([4]; tumor tissues): decrease in VEGFR2 level; tumor metastasis to liver ([4]; vs control mice): prohibited the tumor metastasis; IC50 [5]: 0.44 µM; RhoA interactions with ARHGEF1, LARG DH-PH domain, AKAP13 and ARHGAP4s [6]: disruption of RhoA interactions
